Results on 25 compounds are retold here after patent US8093385B2, “Leukotriene B4 inhibitors” (Hoffmann-La Roche Inc., priority 2007, dated 2012).

This test relates to BLT1 and BLT2 receptors. The test is described as follows: Ca2+ Flux Assay for LTB4 Antagonist Assay. In kind it is cell-based, Human. The note with it: inhibition of LTB4-induced Ca2+ flux (FLIPR), Retinoic Acid induced HL-60 cells endogenously expressing BLT1 and BLT2. As for the experimental part: Ca^2+ Flux Assay for LTB4 Antagonist Assay
Seventy two hours prior to experiment cells are counted using ViaCount reagent, centrifuged and resuspended at 2.0×10^5 cells /ml density with the complete growth media containing 1 μM Retinoic Acid (Sigma).
On a day of the experiment loading buffer (Calcium-3 Assay Kit, Molecular Devices) was prepared by dissolving the contents of one vial (Express Kit) into 500 ml Hank's Balanced Salt Solution containing 20 mM HEPES and 5 mM probenecid. Equal volume of the loading buffer was mixed with the replacement buffer (Hank's Balanced Salt Solution containing 20 mM HEPES, 0.05% BSA and 5 mM probenecid). Retinoic Acid induced HL-60 cells were counted using ViaCount reagent, centrifuged and resuspended at 2.0×10^6 cells /ml density with the loading buffer/replacement buffer, dispensed into 384 well black/clear microplates (Falcon)(25 μl/well) and placed in a 37° C./5% CO2 incubator for 1 hour.
During the incubation, test compounds were prepared at 6× the desired concentration in HBSS/20 mM HEPES/0.05% BSA as well as LTB4 (Biomol) was prepared at 2.2× concentration in HBSS/20 mM HEPES/0.5% BSA buffer.
After the incubation, both the cell and compound plates were brought to the FLIPR and 5 μl of the diluted compounds were transferred to the cell plates by the FLIPR. Plates were then incubated for 30min at room temperature. After the ½ hour incubation, plates were returned to the FLIPR and 25 μl of 2.2× LTB4 was added to the cell plates. During the assay, fluorescence readings were taken simultaneously from all 384 wells of the cell plate every 1.5 seconds. Five readings were taken to establish a stable baseline, then 25 μl (LTB4) of sample was rapidly and simultaneously added to each well of the cell plate. The fluorescence was continuously monitored before, during and after sample addition for a total elapsed time of 100 seconds. Responses (increase in peak fluorescence) in each well following agonist addition was determined. The initial fluorescence reading from each well, prior to ligand stimulation, was used a zero baseline value for the data from that well. The responses are expressed as % inhibition of the neutral control (neutral control: wells that received buffer plus DMSO but no test compound).

SMILES strings stand for the structures. Where a name gives a salt, the structure may show the parent alone. Read-outs that look alike come from different tables or passages of the source.

As for `Cc1cc(-c2cc(OCCCCCCc3cccc(OCCCC(=O)O)c3CCC(=O)O)cc(-c3ccc(N(C)C)cc3)c2)ccc1F` [Example 65, 4-{2-(2-Carboxy-ethyl)-3-[6-(4″-dimethylamino-4-fluoro-3-methyl-[1,1′;3′,1″]terphenyl-5′-yloxy)-hexyl]-phenoxy}-butyric acid], the IC50 (read-out: IC50) was 0.47 nM.
Still for that read-out and setting: as for `O=C(O)CCCOc1cccc(CCCCCC#Cc2cc(-c3ccccc3)cc(-c3ccccc3)c2)c1CCC(=O)O` [Example 48, 4-[2-(2-Carboxy-ethyl)-3-(7-[1,1′;3′,1″]terphenyl-5′-yl-hept-6-ynyl)-phenoxy]-butyric acid], the figure is 2.69 nM; as for `O=C(O)CCCOc1cccc(CCCCCCOc2cc(-c3ccncc3)cc(-c3ccc4c(c3)OCCO4)c2)c1CCC(=O)O` [Example 24, 4-(2-(2-Carboxy-ethyl)-3-{6-[3-(2,3-dihydro-benzo[1,4]dioxin-6-yl)-5-pyridin-4-yl-phenoxy]-hexyl}-phenoxy)-butyric acid], 0.23 nM.
Same read-out and setting: in the case of `COc1ccc(-c2cc(OCCCCCCc3cccc(OCCCC(=O)O)c3CCC(=O)O)cc(-c3ccc(OC)cc3)c2)cc1` [Example 88, 4-{2-(2-Carboxy-ethyl)-3-[6-(4,4″-dimethoxy-[1,1′;3′,1″]terphenyl-5′-yloxy)-hexyl]-phenoxy}-butyric acid] it was 0.61 nM; in that of `O=C(O)CCCOc1cccc(CCCCCCOc2cc(-c3cncnc3)cc(-c3ccsc3)c2)c1CCC(=O)O` [Example 16, 4-{2-(2-Carboxy-ethyl)-3-[6-(3-pyrimidin-5-yl-5-thiophen-3-yl-phenoxy)-hexyl]-phenoxy}-butyric acid], 0.39 nM.
On the same count and under the same terms, in the case of `O=C(O)CCCOc1cccc(CCCCCCOc2cc(-c3ccsc3)cc(-c3ccsc3)c2)c1CCC(=O)O` [Example 56, 4-{2-(2-Carboxy-ethyl)-3-[6-(3,5-di-thiophen-3-yl-phenoxy)-hexyl]-phenoxy}-butyric acid] it was 0.58 nM.
In the case of `O=C(O)CCCOc1cccc(CCCCCCOc2cc(-c3ccncc3)cc(-c3cccc(F)c3)c2)c1CCC(=O)O` [Example 18, 4-{2-(2-Carboxy-ethyl)-3-[6-(3′-fluoro-5-pyridin-4-yl-biphenyl-3-yloxy)-hexyl]-phenoxy}-butyric acid], the IC50 (read-out: IC50) was found to be 0.18 nM.
Same read-out and setting: in the case of `O=C(O)CCCOc1cccc(CCCCCCOc2cc(-c3ccncc3)cc(-c3ccsc3)c2)c1CCC(=O)O` [Example 14, 4-{2-(2-Carboxy-ethyl)-3-[6-(3-pyridin-4-yl-5-thiophen-3-yl-phenoxy)-hexyl]-phenoxy}-butyric acid] it was 0.2 nM; in that of `O=C(O)CCCOc1cccc(CCCCCCCc2cc(-c3ccc4c(c3)OCO4)cc(-c3ccc4c(c3)OCO4)c2)c1CCC(=O)O` [Example 52, 4-[3-[7-(3,5-Bis-benzo[1,3]dioxol-5-yl-phenyl)-heptyl]-2-(2-carboxy-ethyl)-phenoxy]-butyric acid], 42.5 nM.
Still for that read-out and setting: as for `O=C(O)CCCOc1cccc(CCCCCCNc2cc(-c3ccsc3)cc(-c3ccsc3)c2)c1CCC(=O)O` [Example 35, 4-{2-(2-Carboxy-ethyl)-3-[6-(3,5-di-thiophen-3-yl-phenylamino)-hexyl]-phenoxy}-butyric acid], the figure is 99.1 nM.
In the case of `O=C(O)CCCOc1cccc(CCCCCCOc2cc(-c3ccccc3)cc(-c3ccccc3)c2)c1CCC(=O)O` [Example 2, 4-{2-(2-Carboxy-ethyl)-3-[6-([1,1′,3,1″]terphenyl-5′-yloxy)-hexyl]-phenoxy}-butyric acid], the IC50 (read-out: IC50) was 0.21 nM.
Same read-out and setting: as for `O=C(O)CCCOc1cccc(CCCCCCOc2cc(-c3ccsc3)cc(-c3ccc4c(c3)OCO4)c2)c1CCC(=O)O` [Example 12, 4-{3-[6-(3-Benzo[1,3]dioxol-5-yl-5-thiophen-3-yl-phenoxy)-hexyl]-2-(2-carboxy-ethyl)-phenoxy}-butyric acid], the figure is 0.21 nM.
On the same count and under the same terms, in the case of `O=C(O)CCCOc1cccc(CCCCCCOc2cc(-c3cccnc3)cc(-c3cccnc3)c2)c1CCC(=O)O` [Example 4, 4-{2-(2-Carboxy-ethyl)-3-[6-(3,5-di-pyridin-3-yl-phenoxy)-hexyl]-phenoxy}-butyric acid] it was 0.64 nM; in that of `O=C(O)CCCOc1cccc(CCCCCCOc2cc(-c3ccccn3)cc(-c3ccccn3)c2)c1CCC(=O)O` [Example 26, 4-(2-(2-Carboxy-ethyl)-3-{6-[3,5-di-pyridin-2-yl-phenoxy]-hexyl}-phenoxy)-butyric acid], 0.97 nM; in that of `O=C(O)CCCOc1cccc(CCCCCCOc2cc(-c3ccccc3)cc(-c3ccccc3F)c2)c1CCC(=O)O` [Example 97, 4-{2-(2-Carboxy-ethyl)-3-[6-(2-fluoro-[1,1′;3′,1″]terphenyl-5′-yloxy)-hexyl]-phenoxy}-butyric acid], 0.25 nM.
The same measure, in the same setting: as for `O=C(O)CCCOc1cccc(CCCCCCOc2cc(-c3ccncc3)cc(-c3ccc4c(c3)OCO4)c2)c1CCC(=O)O` [Example 20, 4-{3-[6-(3-Benzo[1,3]dioxol-5-yl-5-pyridin-4-yl-phenoxy)-hexyl]-2-(2-carboxy-ethyl)-phenoxy}-butyric acid], the figure is 0.21 nM; as for `Cc1cc(C(F)(F)F)c(-c2cc(OCCCCCCc3cccc(OCCCC(=O)O)c3CCC(=O)O)cc(-c3ccsc3)c2)c(=O)n1C` [Example 28, 4-(2-(2-Carboxy-ethyl)-3-{6-[3-(1,6-dimethyl-2-oxo-4-trifluoromethyl-1,2-dihydro-pyridin-3-yl)-5-thiophen-3-yl-phenoxy]-hexyl}-phenoxy)-butyric acid], 99.4 nM; as for `O=C(O)CCCOc1cccc(CCCCCCOc2cc(-c3ccnc(F)c3)cc(-c3ccnc(F)c3)c2)c1CCC(=O)O` [Example 3, 4-[3-{6-[3,5-Bis-(2-fluoro-pyridin-4-yl)-phenoxy]-hexyl}-2-(2-carboxy-ethyl)-phenoxy]-butyric acid], 0.17 nM.
As for `CN(C)c1ccc(-c2cc(OCCCCCCc3cccc(OCCCC(=O)O)c3CCC(=O)O)cc(-c3ccc(Cl)c(F)c3)c2)cc1` [Example 63, 4-{2-(2-Carboxy-ethyl)-3-[6-(4-chloro-4″-dimethylamino-3-fluoro-[1,1′;3′,1″]terphenyl-5′-yloxy)-hexyl]-phenoxy}-butyric acid], where the note is “read-out: IC50”, the IC50 came to 59.8 nM.
Same read-out and setting: in the case of `O=C(O)CCCOc1cccc(CCCCCCOc2cc(-c3ccccc3)cc(-c3ccc(OC(F)(F)F)cc3)c2)c1CCC(=O)O` [Example 70] it was 0.58 nM.
The same measure, in the same setting: in the case of `O=C(O)CCCOc1cccc(CCCCCCOc2cc(-c3ccccc3)cc(-c3ccsc3)c2)c1CCC(=O)O` [Example 13, 4-{2-(2-Carboxy-ethyl)-3-[6-(5-thiophen-3-yl-biphenyl-3-yloxy)-hexyl]-phenoxy}-butyric acid] it was 0.36 nM; in that of `O=C(O)CCCOc1cccc(CCCCCCOc2cc(-c3ccsc3)cc(-c3ccnc(Cl)c3)c2)c1CCC(=O)O` [Example 15], 0.57 nM.
As for `O=C(O)CCCOc1cccc(CCCCCCSc2cc(-c3ccccc3)cc(-c3ccccc3)c2)c1CCC(=O)O` [Example 7, 4-{2-(2-Carboxy-ethyl)-3-[6-([1,1′;3′,1″]terphenyl-5′-ylsulfanyl)-hexyl]-pheoxy}-butyric acid], the IC50 (read-out: IC50) was found to be 75 nM.
For the compound `O=C(O)CCCOc1cccc(CCCCCCOc2cc(-c3cccc(F)c3)cc(-c3ccc4c(c3)OCO4)c2)c1CCC(=O)O` [Example 17, 4-{3-[6-(5-Benzo[1,3]dioxol-5-yl-3′-fluoro-biphenyl-3-yloxy)-hexyl]-2-(2-carboxy-ethyl)-phenoxy}-butyric acid bis-sodium salt], the IC50 stood at 1.19 nM.
Regarding `O=C(O)CCCOc1cccc(CCCCCCOc2cc(-c3ccncc3)cc(-c3ccncc3)c2)c1CCC(=O)O` [Example 1, 4-{2-(2-Carboxy-ethyl)-3-[6-(3,5-di-pyridin-4-yl-phenoxy)-hexyl]-phenoxy}-butyric acid], the IC50 (read-out: IC50) amounted to 0.07 nM.

Broadly, the IC50 is the concentration needed to halve the response being measured.
